Measurements as given in the NIST ThermoML archive (doi:10.1007/s10765-008-0482-1).
Values joined by “and” are separate entries in the source; they are usually repeats but may differ in a detail not shown here. Equal values may be shown once.

Experiment: xn = mol fraction of the nth substance listed
Conditions: Fluid (supercritical or subcritical phases), Parallel plate method

CC [ethane] + O=C=O
Conditions	thermal conductivity
296.64 K, Amount density=7450 mol/m3, x2 = 0.25	0.186 W/m/K
296.65 K, Amount density=7450 mol/m3, x2 = 0.25	0.183 W/m/K
296.66 K, Amount density=6830 mol/m3, x2 = 0.25	0.138 W/m/K
296.69 K, Amount density=7450 mol/m3, x2 = 0.25	0.186 W/m/K
296.7 K, Amount density=6870 mol/m3, x2 = 0.25	0.177 W/m/K and 0.188 W/m/K
296.7 K, Amount density=7450 mol/m3, x2 = 0.25	0.154 W/m/K
296.71 K, Amount density=6870 mol/m3, x2 = 0.25	0.214 W/m/K
296.71 K, Amount density=7450 mol/m3, x2 = 0.25	0.175 W/m/K
296.72 K, Amount density=7450 mol/m3, x2 = 0.25	0.164 W/m/K and 0.166 W/m/K
296.73 K, Amount density=6870 mol/m3, x2 = 0.25	0.195 W/m/K
296.74 K, Amount density=6830 mol/m3, x2 = 0.25	0.199 W/m/K
296.74 K, Amount density=7450 mol/m3, x2 = 0.25	0.145 W/m/K
296.75 K, Amount density=6870 mol/m3, x2 = 0.25	0.204 W/m/K
296.75 K, Amount density=7450 mol/m3, x2 = 0.25	0.157 W/m/K
296.76 K, Amount density=6870 mol/m3, x2 = 0.25	0.189 W/m/K
296.77 K, Amount density=6870 mol/m3, x2 = 0.25	0.195 W/m/K
296.79 K, Amount density=6830 mol/m3, x2 = 0.25	0.218 W/m/K
296.8 K, Amount density=6870 mol/m3, x2 = 0.25	0.168 W/m/K
296.8 K, Amount density=8450 mol/m3, x2 = 0.25	0.0921 W/m/K
296.82 K, Amount density=6710 mol/m3, x2 = 0.26	0.118 W/m/K
296.83 K, Amount density=6870 mol/m3, x2 = 0.25	0.157 W/m/K
296.84 K, Amount density=6710 mol/m3, x2 = 0.26	0.111 W/m/K
296.84 K, Amount density=6830 mol/m3, x2 = 0.25	0.142 W/m/K
296.85 K, Amount density=5680 mol/m3, x2 = 0.25	0.0729 W/m/K
296.86 K, Amount density=2940 mol/m3, x2 = 0.25	0.0306 W/m/K
296.87 K, Amount density=877 mol/m3, x2 = 0.26	0.0217 W/m/K
296.87 K, Amount density=6710 mol/m3, x2 = 0.26	0.11 W/m/K
296.88 K, Amount density=446 mol/m3, x2 = 0.25	0.021 W/m/K
296.88 K, Amount density=7450 mol/m3, x2 = 0.25	0.145 W/m/K
296.88 K, Amount density=7490 mol/m3, x2 = 0.25	0.139 W/m/K
297.16 K, Amount density=3090 mol/m3, x2 = 0.26	0.0313 W/m/K
297.44 K, Amount density=8450 mol/m3, x2 = 0.25	0.0821 W/m/K
297.46 K, Amount density=5680 mol/m3, x2 = 0.25	0.0677 W/m/K
297.46 K, Amount density=6830 mol/m3, x2 = 0.25	0.11 W/m/K and 0.102 W/m/K
297.47 K, Amount density=2940 mol/m3, x2 = 0.25	0.0305 W/m/K
297.47 K, Amount density=6830 mol/m3, x2 = 0.25	0.102 W/m/K
297.48 K, Amount density=7490 mol/m3, x2 = 0.25	0.111 W/m/K
297.5 K, Amount density=10780 mol/m3, x2 = 0.25	0.0671 W/m/K
297.52 K, Amount density=446 mol/m3, x2 = 0.25	0.021 W/m/K
298.49 K, Amount density=9120 mol/m3, x2 = 0.74	0.06 W/m/K
298.69 K, Amount density=6870 mol/m3, x2 = 0.25	0.169 W/m/K
298.95 K, Amount density=7450 mol/m3, x2 = 0.25	0.081 W/m/K
298.99 K, Amount density=5680 mol/m3, x2 = 0.25	0.0623 W/m/K
298.99 K, Amount density=6830 mol/m3, x2 = 0.25	0.0779 W/m/K
298.99 K, Amount density=7490 mol/m3, x2 = 0.25	0.0811 W/m/K
298.99 K, Amount density=10780 mol/m3, x2 = 0.25	0.0684 W/m/K
299 K, Amount density=2940 mol/m3, x2 = 0.25	0.0305 W/m/K
299.01 K, Amount density=446 mol/m3, x2 = 0.25	0.0211 W/m/K
299.01 K, Amount density=6630 mol/m3, x2 = 0.74	0.0467 W/m/K
299.02 K, Amount density=446 mol/m3, x2 = 0.25	0.0212 W/m/K
301.91 K, Amount density=7730 mol/m3, x2 = 0.5	0.0493 W/m/K
301.93 K, Amount density=6710 mol/m3, x2 = 0.26	0.0624 W/m/K
301.95 K, Amount density=7530 mol/m3, x2 = 0.5	0.0505 W/m/K
301.96 K, Amount density=6960 mol/m3, x2 = 0.5	0.0531 W/m/K
301.98 K, Amount density=435 mol/m3, x2 = 0.5	0.0203 W/m/K
302 K, Amount density=6830 mol/m3, x2 = 0.25	0.0658 W/m/K
302.01 K, Amount density=877 mol/m3, x2 = 0.26	0.0222 W/m/K
302.01 K, Amount density=2940 mol/m3, x2 = 0.5	0.0281 W/m/K
302.02 K, Amount density=446 mol/m3, x2 = 0.25	0.0214 W/m/K
302.02 K, Amount density=5680 mol/m3, x2 = 0.25	0.056 W/m/K
302.04 K, Amount density=2940 mol/m3, x2 = 0.25	0.0307 W/m/K
302.04 K, Amount density=6830 mol/m3, x2 = 0.25	0.0658 W/m/K
302.05 K, Amount density=8450 mol/m3, x2 = 0.25	0.0676 W/m/K
302.06 K, Amount density=7490 mol/m3, x2 = 0.25	0.0699 W/m/K
302.11 K, Amount density=3090 mol/m3, x2 = 0.26	0.0311 W/m/K
302.25 K, Amount density=6630 mol/m3, x2 = 0.74	0.0436 W/m/K
302.43 K, Amount density=5650 mol/m3, x2 = 0.5	0.0436 W/m/K
307.99 K, Amount density=2940 mol/m3, x2 = 0.5	0.0279 W/m/K
308 K, Amount density=7730 mol/m3, x2 = 0.5	0.0462 W/m/K
308.01 K, Amount density=6830 mol/m3, x2 = 0.25	0.0567 W/m/K
308.02 K, Amount density=6960 mol/m3, x2 = 0.5	0.0468 W/m/K
308.02 K, Amount density=7490 mol/m3, x2 = 0.25	0.0614 W/m/K
308.03 K, Amount density=7530 mol/m3, x2 = 0.5	0.0469 W/m/K
308.06 K, Amount density=5650 mol/m3, x2 = 0.5	0.041 W/m/K
308.06 K, Amount density=7450 mol/m3, x2 = 0.25	0.0646 W/m/K
308.06 K, Amount density=9120 mol/m3, x2 = 0.74	0.0485 W/m/K
308.07 K, Amount density=435 mol/m3, x2 = 0.5	0.0207 W/m/K
308.07 K, Amount density=446 mol/m3, x2 = 0.25	0.0219 W/m/K
308.09 K, Amount density=435 mol/m3, x2 = 0.5	0.0207 W/m/K
308.1 K, Amount density=877 mol/m3, x2 = 0.26	0.0228 W/m/K
308.12 K, Amount density=10780 mol/m3, x2 = 0.25	0.0659 W/m/K
308.15 K, Amount density=2940 mol/m3, x2 = 0.25	0.031 W/m/K
308.16 K, Amount density=3090 mol/m3, x2 = 0.26	0.0314 W/m/K
308.18 K, Amount density=6630 mol/m3, x2 = 0.74	0.0413 W/m/K
308.18 K, Amount density=6710 mol/m3, x2 = 0.26	0.054 W/m/K
308.23 K, Amount density=8450 mol/m3, x2 = 0.25	0.0617 W/m/K
308.7 K, Amount density=5680 mol/m3, x2 = 0.25	0.0516 W/m/K
318.04 K, Amount density=9120 mol/m3, x2 = 0.74	0.0354 W/m/K
318.11 K, Amount density=435 mol/m3, x2 = 0.5	0.0218 W/m/K
318.11 K, Amount density=6630 mol/m3, x2 = 0.74	0.0382 W/m/K
318.12 K, Amount density=7530 mol/m3, x2 = 0.5	0.0445 W/m/K
318.13 K, Amount density=5650 mol/m3, x2 = 0.5	0.0411 W/m/K
318.13 K, Amount density=6960 mol/m3, x2 = 0.5	0.0425 W/m/K
318.13 K, Amount density=7490 mol/m3, x2 = 0.25	0.0559 W/m/K
318.13 K, Amount density=7730 mol/m3, x2 = 0.5	0.0403 W/m/K
318.14 K, Amount density=2940 mol/m3, x2 = 0.5	0.0293 W/m/K
318.14 K, Amount density=6830 mol/m3, x2 = 0.25	0.0532 W/m/K
318.14 K, Amount density=10780 mol/m3, x2 = 0.25	0.065 W/m/K
318.15 K, Amount density=446 mol/m3, x2 = 0.25	0.0232 W/m/K
318.15 K, Amount density=5650 mol/m3, x2 = 0.5	0.0398 W/m/K
318.16 K, Amount density=2940 mol/m3, x2 = 0.25	0.0316 W/m/K
318.16 K, Amount density=8450 mol/m3, x2 = 0.25	0.049 W/m/K
318.17 K, Amount density=3090 mol/m3, x2 = 0.26	0.0318 W/m/K
318.19 K, Amount density=877 mol/m3, x2 = 0.26	0.0236 W/m/K
318.21 K, Amount density=6710 mol/m3, x2 = 0.26	0.0503 W/m/K
318.27 K, Amount density=5680 mol/m3, x2 = 0.25	0.0481 W/m/K
